As usually defined, the pIC50 is the IC50 on a negative log10 scale, so that one unit is a factor of ten.

pIC50: −log10 of the molar value. Like-named read-outs stand apart in the source and are kept apart here. Where only a bound is given, the exact number is not on record here.

The text below walks through data of patent US20240207202A1, “COMBINATION THERAPIES TARGETING MITOCHONDRIAL BIOGENESIS FOR CANCER THERAPY” (The Wistar Institute of Anatomy and Biology, priority 2015, published 2024).

The subject of test [1] is CCLE melanoma cell lines with BRAFV600 mutations. As to conditions: MitoB high vs low subgroups, two sample t-test; cited from earlier work.
Test [2] relates to BRAF(V600E), BRAF(wild type), c-RAF, VEGFR2, PDGFR, CSF1R, RET, c-KIT, SRC, STE20. As to conditions: range over several intracellular kinases; cited from earlier work.
The subject of test [3] is BRAFV600E, VEGFR2, PDGFRB, c-KIT. Particulars: cited from earlier work.
Test [4] relates to 1205Lu melanoma xenograft. As to the kind of experiment: Tumor volume of 1205Lu melanoma xenografts. In kind it is in vivo, mice. Particulars: 1205Lu xenografts.
For test [5], the system named is WM9 melanoma cells. As to the kind of experiment: Induction of apoptosis and cell death by PSVue 643 staining in WM9 melanoma cells. It is filed as cell-based, human. Particulars: WM9, 72 h. On the procedure: Adherent melanoma cells were harvested with 0.05% Trypsin-EDTA and were washed once with 1×DPBS. Cells were labeled with CellTrace™ Violet according to the manufacturer's protocol and were allowed to adhere to tissue culture plates overnight following the drug treatment. […] Cells were then immediately subjected to FACS analysis using a BD LSR II flow cytometer and at least 5,000 cells per sample were acquired.
Cell suspensions were kept in the dark at room temperature for 5 min. 0.2 ml 1×PBS supplemented with 10% FBS was added to each cell suspension and cells were immediately analyzed by BD LSRII.
Briefly, autophagic flux was assessed by FACS analysis of WM9 cells expressing the mCherry-eGFPLC3B construct that were transfected with the indicated siRNAs targeting autophagy and ER stress response and treated for 72 h with DMSO or the combination of PLX4720 at 10 μM and PD0325901 at 1 μM. The data represent the average of 2 biological replicates. […] Autophagic flux was assessed by FACS analysis of WM9 cells expressing the mCherry-eGFPLC3B construct treated for 72 h with Gamitrinib at 1 μM or Spautin-1 at 10 μM in combination with PLX4720 at 10 μM/PD0325901 at 1 μM. Cells treated with DMSO were used as the control for setting up the gate.

Test [6] relates to MitoBiogenesis. As to conditions: Malme-3M and COLO829, 8 h; public gene expression microarray data; cited from earlier work.
The test system of test [7] is MitoBiogenesis. As to the kind of experiment: Expression of 18 MitoBiogenesis genes in melanoma cells (microarray, qRT-PCR, immunoblot). In kind it is cell-based, human. Particulars: for expression of MitoBiogenesis: qRT-PCR, 72 h. As for the experimental part: One μg total mRNA was reverse transcribed using a Maxima First Strand cDNA Synthesis Kit for qRT-PCR (Thermo Fisher). Fast SYBR® Green Master Mix (Life Technologies) was used with cDNA template and primers to evaluate the expression of target genes and GAPDH. Primers used were purchased from Integrated DNA Technologies. Amplifications were performed using an Applied Biosystems® 7500 Real-Time PCR System (Life Technologies). All experiments were performed in triplicate. Expression ratios of controls were normalized to 1. Please see Extended Experimental Procedures for the list of PCR primer sequences. Access of Gene Expression Microarray Data and TCGA Melanoma Patients' RNA-seq Data Time-course Illumina gene expression microarray data of WM9 melanoma cells were deposited at the NCBI Gene Expression Omnibus (GEO) (ncbi.nlm.nih.gov/geo/) under the accession number GSE58721. Normalized CCLE gene expression microarray data were directly downloaded from Broad CCLE (broadinstitute.org/ccle). Gene expression microarray data of A375 and SK-MEL-28 melanoma cells were downloaded from GEO under accession numbers GSE42872 and GSE37441, respectively. Gene expression microarray data of Malme-3M and COLO829 melanoma cells were downloaded from GEO under the accession number GSE51113. Normalized RNA-seq data of TCGA melanoma patients were downloaded from TCGA Data Portal (https://tcga-data.nci.nih.gov/tcga/). Cells were washed with ice-cold PBS containing 100 μM Na3VO4 and scraped off culture dishes. After centrifugation, cell pellets were lysed in buffer containing 10 mM Tris-HCl, pH 7.8, 150 mM NaCl, 1 mM EDTA, 1% Nonidet P-40, 1 mM Na3VO4 and protease inhibitors (Roche complete protease inhibitor tablets). Lysates were cleared by micro-centrifugation and protein concentrations were determined with Protein Assay Dye Reagent Concentrate (Bio-Rad). For western blots, 25 μg of each lysate were run on 15-well 10% or 12% SDS-PAGE gels and transferred onto nitrocellulose membranes using a dye fast Trans-BlotR Turbo™ transfer system (Bio-Rad). […]

Test [8] relates to mitochondrial respiratory chain complex subunits. As to the kind of experiment: Expression of mitochondrial respiratory chain complex subunits in WM9 cells (qRT-PCR, RPPA, immunoblot). It is filed as cell-based, human. As to conditions: qRT-PCR. On the procedure:
One μg total mRNA was reverse transcribed using a Maxima First Strand cDNA Synthesis Kit for qRT-PCR (Thermo Fisher). Fast SYBR® Green Master Mix (Life Technologies) was used with cDNA template and primers to evaluate the expression of target genes and GAPDH. Primers used were purchased from Integrated DNA Technologies. Amplifications were performed using an Applied Biosystems® 7500 Real-Time PCR System (Life Technologies). All experiments were performed in triplicate. Expression ratios of controls were normalized to 1. Please see Extended Experimental Procedures for the list of PCR primer sequences. The raw data of gene expression microarrays generated from Illumina Chips were normalized, background-corrected and summarized using the R package “lumi” (Du et al., 2008). […] To reduce false positives, the unexpressed probes were removed. The R package “limma” (Smyth, 2004, 2005) was employed for gene differential expression analysis, followed by multiple test correction by the Benjamini and Hochberg procedure (Benjamini and Hochberg, 1995). […] We also conducted GSEA as previously reported (Subramanian et al., 2005). For GSEA, we analyzed gene sets obtained from the Molecular Signatures Database (broadinstitute.org/gsea/msigdb/). The same differential expression analysis method was applied to RPPA data. Cells were washed with ice-cold PBS containing 100 μM Na3VO4 and scraped off culture dishes. After centrifugation, cell pellets were lysed in buffer containing 10 mM Tris-HCl, pH 7.8, 150 mM NaCl, 1 mM EDTA, 1% Nonidet P-40, 1 mM Na3VO4 and protease inhibitors (Roche complete protease inhibitor tablets). Lysates were cleared by micro-centrifugation and protein concentrations were determined with Protein Assay Dye Reagent Concentrate (Bio-Rad). For western blots, 25 μg of each lysate were run on 15-well 10% or 12% SDS-PAGE gels and transferred onto nitrocellulose membranes using a dye fast Trans-BlotR Turbo™ transfer system (Bio-Rad). Blots were blocked in SEA BLOCK Blocking Buffer (Thermo Scientific) diluted with 1×TBS at 1:1 ratio at room temperature for 1 h, incubated overnight with primary antibody at 4° C., stained with secondary antibodies conjugated to IRDye® Infrared Dyes (LI-COR Biosciences) and then visualized using an Odyssey flatbed scanner (LI-COR Biosciences).
On the technique in general: Quantitative PCR measures a nucleic acid by following its amplification.

The subject of test [9] is autophagic flux. As to the kind of experiment: Autophagic flux in WM9 cells expressing mCherry-eGFP-LC3B. In kind it is cell-based, human. Particulars: WM9, 72 h, Gamitrinib 1 μM or Spautin-1 10 μM combined with PLX4720 10 μM/PD0325901 1 μM. On the procedure: WM9 cells stably expressing pLVO-Puro-mCherry-eGFP-LC3 were analyzed with a BD LSR II flow cytometer. Fluorescence of mCherry and eGFP was recorded to derive the ratio of mCherryheight over eGFP-height. This ratio indicates the autophagic flux.
Briefly, autophagic flux was assessed by FACS analysis of WM9 cells expressing the mCherry-eGFPLC3B construct that were transfected with the indicated siRNAs targeting autophagy and ER stress response and treated for 72 h with DMSO or the combination of PLX4720 at 10 μM and PD0325901 at 1 μM. The data represent the average of 2 biological replicates. Induction of apoptosis and cell death was assessed by PSVue 643 staining in WM9 cells expressing the mCherry-eGFP-LC3B construct transfected with the indicated siRNAs targeting autophagy and ER stress response and treated for 72 h with DMSO or the combination of PLX4720 at 10 μM and PD0325901 at 1 μM. Autophagic flux was assessed by FACS analysis of WM9 cells expressing the mCherry-eGFPLC3B construct treated for 72 h with Gamitrinib at 1 μM or Spautin-1 at 10 μM in combination with PLX4720 at 10 μM/PD0325901 at 1 μM. Cells treated with DMSO were used as the control for setting up the gate. Induction of apoptosis and cell death was assessed by PSVue 643 staining in WM9 cells treated for 72 h with Gamitrinib at 1 μM or Spautin-1 at 10 μM in combination with PLX4720 at 10 μM/PD0325901 at 1 μM. […]

Setting [10] is: Table 6, mice treated 15 days, PLX4720 200 mg/kg diet, 2,4-DNP 20 mg/kg QD p.o., alone or combined.

Regarding `Cn1c(Nc2ccc(C(F)(F)F)cc2)nc2cc(Oc3ccnc(-c4ncc(C(F)(F)F)[nH]4)c3)ccc21` [RAF265], the “drug IC50 of cell lines with higher basal level of MitoBiogenesis versus lower” value (from here on “drug IC50 … of MitoBiogenesis versus lower”) in test [1] is “significantly lower drug IC50”. Moreover, in test [2], the pIC50 is […]. For the same molecule, the “potency in cell-based assays” value in test [3] (BRAFV600E and VEGFR2) was “most potent”; in test [3] (PDGFRB and c-KIT), “less active”.

As to `O=[N+]([O-])c1ccc(O)c([N+](=O)[O-])c1` [2,4-DNP, 2,4-dinitrophenol], in test [4] (2,4-DNP alone or with PLX4720, combination compared to PLX4720 alone), the tumor growth result is “failed to inhibit tumor growth”. The “% T/C (percentages of tumor volumes)” value in [4] (setting [10]) was 101.96%.

Consider `CC(=O)N[C@@H](CS)C(=O)O` [NAC, N-acetyl-L-cysteine], for which the “apoptosis and cell death induced by the combination of Gamitrinib and MAPK pathway inhibitors” value in test [5] (NAC 5 mM) was “markedly suppress apoptosis and cell death”.

`N=C(N)NC(=N)NCCc1ccccc1` [Phenformin, 1-phenethylbiguanide]: the “apoptosis and cell death, compared with other inhibitors of the drug screen” value in [5] (titrated doses combined with MAPK pathway inhibitors (PLX4720 10 μM, PD0325901 1 μM)) is “greater increase in apoptosis and cell death”.

As for `O=C(NOC[C@H](O)CO)c1ccc(F)c(F)c1Nc1ccc(I)cc1F` [PD0325901], the “drug IC50 … of MitoBiogenesis versus lower” value in [1] was “significantly lower drug IC50”. The “expression of MitoBiogenesis” value in test [6] was “inhibited”.

Turning to `CCCS(=O)(=O)Nc1ccc(F)c(C(=O)c2c[nH]c3ncc(Cl)cc23)c1F` [PLX4720], the “% T/C (percentages of tumor volumes)” value is recorded as 51.41% in [4] (setting [10]) and 56.88% in test [4] (Table 7, 17 days, PLX4720 200 mg/kg diet). For the same molecule, the figures for the “expression of MitoBiogenesis” value in [7] (A375 cells) and in test [7] (WM793 or WM9 cells) were “decreased the expression of MitoBiogenesis” and “up-regulated MitoBiogenesis”, respectively. Further, the “expression of MitoBiogenesis (protein)” value in [7] (WM9 cells, PLX4720 10 μM, 72 h time course, immunoblotting) is recorded as “up-regulated in a time-dependent manner”. The “expression of 30 mitochondria respiratory chain complex subunits” value in [8] (WM9, 72 h) is on record as “substantially up-regulated”. Moreover, the “expression of 5 representative mitochondrial respiratory chain complex subunits” value in [8] (WM9, PLX4720 10 μM up to 120 h) was “up-regulated”. The “drug IC50 … of MitoBiogenesis versus lower” value in test [1] is “significantly lower drug IC50”.

`Fc1ccc(CNc2ncnc3ccc(F)cc23)cc1` [Spautin-1, reference compound]: the “induction of apoptosis and cell death” value in [5] (Spautin-1 10 μM combined with PLX4720 10 μM/PD0325901 1 μM) is “not able to trigger a significant induction of apoptosis and cell death”. In addition, the autophagic flux entry in test [9] is on record as “effectively decreased the autophagic flux”.
